How the values were obtained:
barnyard grass [1] = experiment: Test Example 5: herbicidal effect by foliage application, plastic box (Table 20, symbol H); type: in vivo, barnyard grass (Echinochloa crus-galli); settings: foliage application, 320 g/ha, evaluated three weeks after application
How it was run: (§1)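 Foliar spray test: emulsion formulation diluted in water to a set application rate, sprayed onto 14-day-old plants raised in diluvial soil at 25° C to 30° C under glass. Both herbicidal effect and crop effect rated visually three weeks later.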

barnyard grass [2] = experiment: Test Example 3: herbicidal effect by foliage application, Wagner pot (Table 18, symbol H); type: in vivo, barnyard grass (Echinochloa crus-galli); settings: amount of applied herbicide 320 g/ha
How it was run: (§2)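 Plants were sown in alluvial soil held under 0.1–0.5 cm standing water and grown 14 days in a greenhouse at 25–30 °C. An emulsifiable formulation, water-diluted to the set dose, was then sprayed onto the foliage, and effects were scored three weeks later using previously defined criteria.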

lambsquarters [3] = experiment: Test Example 4: herbicidal effect by soil treatment (Table 19, symbol O); type: in vivo, lambsquarters (Chenopodium album); settings: amount of applied herbicide 320 g/ha
How it was run: (§3)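 Herbicidal effect was rated 3 weeks after treatment, using the scoring criteria of an earlier test. The compound, formulated as an emulsion and diluted in water to a set herbicide amount, had been sprayed uniformly on soil over freshly sown seeds. Growth took place in a greenhouse at 25° C. to 30° C.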

blackgrass [4] = experiment: Test Example 4: herbicidal effect by soil treatment (Table 19, symbol J); type: in vivo, blackgrass (Alopecurus myosuroides); settings: amount of applied herbicide 320 g/ha
How it was run: as §3

late watergrass = experiment: Test Example 1: herbicidal activity, application before weed generation under submerged conditions (Table 16, symbol A); type: in vivo, late watergrass (Echinochloa oryzicola); settings: 320 g/ha applied herbicide
How it was run: (§4)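 Emulsion formulation, water-diluted to set dose, was put onto the flooded surface (4 cm depth, alluvial soil) the same day weeds were sown and 2.5-leaf rice transplanted. After 3 weeks at 25-30 °C under glass, each species was rated 0 (≤5% kill) to 5 (≥90% kill).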

lambsquarters [5] = experiment: Test Example 5: herbicidal effect by foliage application, plastic box (Table 20, symbol O); type: in vivo, lambsquarters (Chenopodium album); settings: foliage application, 320 g/ha, evaluated three weeks after application
How it was run: as §1

persian speedwell [6] = experiment: Test Example 4: herbicidal effect by soil treatment (Table 19, symbol R); type: in vivo, Persian speedwell (Veronica persica); settings: amount of applied herbicide 320 g/ha
How it was run: as §3

windgrass [7] = experiment: Test Example 4: herbicidal effect by soil treatment (Table 19, symbol L); type: in vivo, windgrass (Apera spica-venti); settings: amount of applied herbicide 320 g/ha
How it was run: as §3

persian speedwell [8] = experiment: Test Example 5: herbicidal effect by foliage application, plastic box (Table 20, symbol R); type: in vivo, Persian speedwell (Veronica persica); settings: foliage application, 320 g/ha, evaluated three weeks after application
How it was run: as §1

barnyard grass [9] = experiment: Test Example 4: herbicidal effect by soil treatment (Table 19, symbol H); type: in vivo, barnyard grass (Echinochloa crus-galli); settings: amount of applied herbicide 320 g/ha
How it was run: as §3

chickweed [10] = experiment: Test Example 4: herbicidal effect by soil treatment (Table 19, symbol P); type: in vivo, common chickweed (Stellaria media); settings: amount of applied herbicide 320 g/ha
How it was run: as §3

chickweed [11] = experiment: Test Example 5: herbicidal effect by foliage application, plastic box (Table 20, symbol P); type: in vivo, common chickweed (Stellaria media); settings: foliage application, 320 g/ha, evaluated three weeks after application
How it was run: as §1

redroot pigweed [12] = experiment: Test Example 5: herbicidal effect by foliage application, plastic box (Table 20, symbol N); type: in vivo, redroot pigweed (Amaranthus retroflexus); settings: foliage application, 320 g/ha, evaluated three weeks after application
How it was run: as §1

green foxtail [13] = experiment: Test Example 4: herbicidal effect by soil treatment (Table 19, symbol G); type: in vivo, green foxtail (Setaria viridis); settings: amount of applied herbicide 320 g/ha
How it was run: as §3

Chinese sprangletop = experiment: Test Example 3: herbicidal effect by foliage application, Wagner pot (Table 18, symbol D); type: in vivo, chinese sprangletop (Leptochloa chinensis); settings: amount of applied herbicide 320 g/ha
How it was run: as §2

velvetleaf [14] = experiment: Test Example 5: herbicidal effect by foliage application, plastic box (Table 20, symbol M); type: in vivo, velvetleaf (Abutilon theophrasti); settings: foliage application, 320 g/ha, evaluated three weeks after application
How it was run: as §1

velvetleaf [15] = experiment: Test Example 4: herbicidal effect by soil treatment (Table 19, symbol M); type: in vivo, velvetleaf (Abutilon theophrasti); settings: amount of applied herbicide 320 g/ha
How it was run: as §3

blackgrass [16] = experiment: Test Example 5: herbicidal effect by foliage application, plastic box (Table 20, symbol J); type: in vivo, blackgrass (Alopecurus myosuroides); settings: foliage application, 320 g/ha, evaluated three weeks after application
How it was run: as §1

redroot pigweed [17] = experiment: Test Example 4: herbicidal effect by soil treatment (Table 19, symbol N); type: in vivo, redroot pigweed (Amaranthus retroflexus); settings: amount of applied herbicide 320 g/ha
How it was run: as §3

southern crabgrass [18] = experiment: Test Example 4: herbicidal effect by soil treatment (Table 19, symbol F); type: in vivo, southern crabgrass (Digitaria ciliaris); settings: amount of applied herbicide 320 g/ha
How it was run: as §3

Italian ryegrass [19] = experiment: Test Example 4: herbicidal effect by soil treatment (Table 19, symbol K); type: in vivo, Italian ryegrass (Lolium multiflorum); settings: amount of applied herbicide 320 g/ha
How it was run: as §3

southern crabgrass [20] = experiment: Test Example 5: herbicidal effect by foliage application, plastic box (Table 20, symbol F); type: in vivo, southern crabgrass (Digitaria ciliaris); settings: foliage application, 320 g/ha, evaluated three weeks after application
How it was run: as §1

wild oat [21] = experiment: Test Example 4: herbicidal effect by soil treatment (Table 19, symbol I); type: in vivo, wild oat (Avena fatua); settings: amount of applied herbicide 320 g/ha
How it was run: as §3

Japanese bulrush = experiment: Test Example 1: herbicidal activity, application before weed generation under submerged conditions (Table 16, symbol B); type: in vivo, Japanese bulrush (Schoenoplectus juncoides); settings: 320 g/ha applied herbicide
How it was run: as §4

green foxtail [22] = experiment: Test Example 5: herbicidal effect by foliage application, plastic box (Table 20, symbol G); type: in vivo, green foxtail (Setaria viridis); settings: foliage application, 320 g/ha, evaluated three weeks after application
How it was run: as §1

oval-leafed pondweed = experiment: Test Example 1: herbicidal activity, application before weed generation under submerged conditions (Table 16, symbol C); type: in vivo, oval-leafed pondweed (Monochoria vaginalis); settings: 320 g/ha applied herbicide
How it was run: as §4

Italian ryegrass [23] = experiment: Test Example 5: herbicidal effect by foliage application, plastic box (Table 20, symbol K); type: in vivo, Italian ryegrass (Lolium multiflorum); settings: foliage application, 320 g/ha, evaluated three weeks after application
How it was run: as §1

rice flat sedge = experiment: Test Example 3: herbicidal effect by foliage application, Wagner pot (Table 18, symbol E); type: in vivo, rice flat sedge (Cyperus iria); settings: amount of applied herbicide 320 g/ha
How it was run: as §2

wild oat [24] = experiment: Test Example 5: herbicidal effect by foliage application, plastic box (Table 20, symbol I); type: in vivo, wild oat (Avena fatua); settings: foliage application, 320 g/ha, evaluated three weeks after application
How it was run: as §1

windgrass [25] = experiment: Test Example 5: herbicidal effect by foliage application, plastic box (Table 20, symbol L); type: in vivo, windgrass (Apera spica-venti); settings: foliage application, 320 g/ha, evaluated three weeks after application
How it was run: as §1

Question: Which results are given for `CCCSc1cccc(-c2sc3ccc(F)cc3c2-c2c(O)c(C)nn(C)c2=O)c1` [2-246]?
Answer: herbicidal effect on H: barnyard grass (criteria 0-5) (barnyard grass [1]): 0 (Herbicidal rate of 5% or less (almost no effect)); herbicidal effect on H: barnyard grass (barnyard grass [2]): 3 (Herbicidal rate of 40% or more and less than 70%); herbicidal effect on O: lambsquarters (lambsquarters [3]): 0 (Herbicidal rate of 5% or less (almost no effect)); herbicidal effect on J: blackgrass (blackgrass [4]): 0 (Herbicidal rate of 5% or less (almost no effect)); Herbicidal effect on A: late watergrass (grade 0-5) (late watergrass): 2 (Herbicidal rate of 20% or more and less than 40%); herbicidal effect on O: lambsquarters (criteria 0-5) (lambsquarters [5]): 0 (Herbicidal rate of 5% or less (almost no effect)); herbicidal effect on R: persian speedwell (persian speedwell [6]): 5 (Herbicidal rate of 90% or more (almost completely withered)); herbicidal effect on L: windgrass (windgrass [7]): 0 (Herbicidal rate of 5% or less (almost no effect)); herbicidal effect on R: persian speedwell (criteria 0-5) (persian speedwell [8]): 5 (Herbicidal rate of 90% or more (almost completely withered)); herbicidal effect on H: barnyard grass (barnyard grass [9]): 0 (Herbicidal rate of 5% or less (almost no effect)); herbicidal effect on P: chickweed (chickweed [10]): 3 (Herbicidal rate of 40% or more and less than 70%); herbicidal effect on P: chickweed (criteria 0-5) (chickweed [11]): 5 (Herbicidal rate of 90% or more (almost completely withered)); herbicidal effect on N: redroot pigweed (criteria 0-5) (redroot pigweed [12]): 3 (Herbicidal rate of 40% or more and less than 70%); herbicidal effect on G: green foxtail (green foxtail [13]): 0 (Herbicidal rate of 5% or less (almost no effect)); herbicidal effect on D: Chinese sprangletop (Chinese sprangletop): 0 (Herbicidal rate of 5% or less (almost no effect)); herbicidal effect on M: velvetleaf (criteria 0-5) (velvetleaf [14]): 3 (Herbicidal rate of 40% or more and less than 70%); herbicidal effect on M: velvetleaf (velvetleaf [15]): 0 (Herbicidal rate of 5% or less (almost no effect)); herbicidal effect on J: blackgrass (criteria 0-5) (blackgrass [16]): 1 (Herbicidal rate of 5% or more and less than 20%); herbicidal effect on N: redroot pigweed (redroot pigweed [17]): 0 (Herbicidal rate of 5% or less (almost no effect)); herbicidal effect on F: southern crabgrass (southern crabgrass [18]): 0 (Herbicidal rate of 5% or less (almost no effect)); herbicidal effect on K: Italian ryegrass (Italian ryegrass [19]): 0 (Herbicidal rate of 5% or less (almost no effect)); herbicidal effect on F: southern crabgrass (criteria 0-5) (southern crabgrass [20]): 0 (Herbicidal rate of 5% or less (almost no effect)); herbicidal effect on I: wild oat (wild oat [21]): 0 (Herbicidal rate of 5% or less (almost no effect)); Herbicidal effect on B: Japanese bulrush (grade 0-5) (Japanese bulrush): 0 (Herbicidal rate of 5% or less (almost no effect)); herbicidal effect on G: green foxtail (criteria 0-5) (green foxtail [22]): 0 (Herbicidal rate of 5% or less (almost no effect)); Herbicidal effect on C: oval-leafed pondweed (grade 0-5) (oval-leafed pondweed): 0 (Herbicidal rate of 5% or less (almost no effect)); herbicidal effect on K: Italian ryegrass (criteria 0-5) (Italian ryegrass [23]): 2 (Herbicidal rate of 20% or more and less than 40%); herbicidal effect on E: rice flat sedge (rice flat sedge): 3 (Herbicidal rate of 40% or more and less than 70%); herbicidal effect on I: wild oat (criteria 0-5) (wild oat [24]): 4 (Herbicidal rate of 70% or more and less than 90%); herbicidal effect on L: windgrass (criteria 0-5) (windgrass [25]): 3 (Herbicidal rate of 40% or more and less than 70%)

From patent US20230085307A1, “PYRIDAZINONE COMPOUND AND HERBICIDE” (NISSAN CHEMICAL CORPORATION, priority 2019, published 2023)
